Test results: US20050009924A1 (priority 2003, published 2005)
Each block holds one compound with its values, some of them ahead of it.

Assays:
[1] = MTT relative viability, PhTERT-SEAP (H1299) cells; details: human
[2] = MTT relative viability, PhTERT-SEAP (hTERT-BJ1) cells; details: human
human hepatoma G2 cells = test: Cytotoxicity assay (XTT colorimetric), Hep G2; assay type: cell-based; details: Homo sapiens, HepG2; 48 h of drug exposure
[3] = test system: iron-induced lipid peroxidation in rat brain homogenates; test: Iron-induced lipid peroxidation in rat brain homogenates; details: 10 mM; mean percent inhibition (Table 3)
[4] = test system: transcriptional activity of hTERT; test: SEAP reporter assay of hTERT expression, PhTERT-SEAP (H1299); assay type: cell-based, human
Method in brief: (§1)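 Read-out: rate of absorbance rise at 405 nm from p-nitrophenyl phosphate (12 mM final) hydrolysis by secreted alkaline phosphatase in heat-treated (65° C, 10 min) culture medium. Drugs at varying amounts were applied for 24 h after a 24 h pre-culture at 37° C.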

[5] = test system: transcriptional activity of hTERT; test: SEAP reporter assay of hTERT expression, PhTERT-SEAP (hTERT-BJ1); assay type: cell-based, human
Method in brief: as §1

rat glioma C6 cells = test: Cytotoxicity assay (XTT colorimetric), C6 cells; assay type: cell-based; details: Rattus norvegicus, C6; 48 h of drug exposure
[6] = test system: hepatitis B virus transfected hepatoma cell lines, HepG 2.2.15 cells; test: Cytotoxicity assay, 2.2.15 cells; assay type: cell-based, human; details: Homo sapiens, HepG2.2.15; 48 h of drug exposure
[7] = hTERT-BJ1 cells, stable PhTERT-SEAP reporter clone
[8] = 2.0 μM, PhTERT-SEAP(hTERT-H1299)
[9] = 20 μM, PhTERT-SEAP(hTERT-H1299)
[10] = Homo sapiens, NCI-H1299, 2.0 μM, PhTERT-SEAP(hTERT-H1299), read-out: Relative SEAP activity (%)
[11] = Homo sapiens, NCI-H1299, 20 μM, PhTERT-SEAP(hTERT-H1299), read-out: Relative SEAP activity (%)
[12] = 2.0 μM, PhTERT-SEAP (hTERT-BJ1)
[13] = Homo sapiens, 2.0 μM, PhTERT-SEAP (hTERT-BJ1), read-out: Relative SEAP activity (%)
[14] = Homo sapiens, 20 μM, PhTERT-SEAP (hTERT-BJ1), read-out: Relative SEAP activity (%)

melting point: 211 to 213 °C
Structure (SMILES): CCCC(=O)Oc1cccc2c1C(=O)c1cccc(OC(=O)CCC)c1C2=O [IIIb, 1,5-Bis(butyryloxy)-anthraquinone]
viability at 48 h, 2.6 µM [1]: 107 ± 5.6%
viability at 48 h, 26 µM [1]: 106 ± 3.2%
viability at 48 h, 260 µM [1]: 87 ± 6.5%
viability at 48 h, 2.6 µM [2]: 109 ± 5.1%
viability at 48 h, 26 µM [2]: 106 ± 5.6%
viability at 48 h, 260 µM [2]: 85 ± 6.6%
IC50 (human hepatoma G2 cells): 0.02 ± 0.01 µM
Inhibition of LP(10 mM) [3]: 54 ± 2.2%
activity at 2.6 µM ([4]; Homo sapiens, NCI-H1299, 2.6 μM, H1299, read-out: Relative SEAP activity (%)): 114 ± 7.9%
activity at 26 µM ([4]; Homo sapiens, NCI-H1299, 26 μM, H1299, read-out: Relative SEAP activity (%)): 118 ± 8.4%
activity at 260 µM ([4]; Homo sapiens, NCI-H1299, 260 μM, H1299, read-out: Relative SEAP activity (%)): 111 ± 4.4%
activity at 2.6 µM ([5]; Homo sapiens, 2.6 μM, hTERT-BJ1, read-out: Relative SEAP activity (%)): 107 ± 11.9%
activity at 26 µM ([5]; Homo sapiens, 26 μM, hTERT-BJ1, read-out: Relative SEAP activity (%)): 119 ± 8.3%
activity at 260 µM ([5]; Homo sapiens, 260 μM, hTERT-BJ1, read-out: Relative SEAP activity (%)): 134 ± 3.8%
IC50 (rat glioma C6 cells): 38.5 ± 2.8 µM

melting point: 183 to 184 °C
Structure (SMILES): CCCCCC(=O)Oc1cccc2c1C(=O)c1cccc(OC(=O)CCCCC)c1C2=O [IIIc, 1,5-Bis(hexanoyloxy)-anthraquinone]
viability at 48 h, 2.3 µM [1]: 117 ± 5.1%
viability at 48 h, 23 µM [1]: 114 ± 4.7%
viability at 48 h, 230 µM [1]: 106 ± 4.3%
viability at 48 h, 2.3 µM [2]: 119 ± 9.4%
viability at 48 h, 23 µM [2]: 98 ± 13.4%
viability at 48 h, 230 µM [2, 7]: 62 ± 6.4%
IC50 (human hepatoma G2 cells): 36.2 ± 2.5 µM
Inhibition of LP(10 mM) [3]: −55 ± 1.5^ %
activity at 2.3 µM ([4]; Homo sapiens, NCI-H1299, 2.3 μM, H1299, read-out: Relative SEAP activity (%)): 91 ± 9.9%
activity at 23 µM ([4]; Homo sapiens, NCI-H1299, 23 μM, H1299, read-out: Relative SEAP activity (%)): 95 ± 17.4%
activity at 230 µM ([4]; Homo sapiens, NCI-H1299, 230 μM, H1299, read-out: Relative SEAP activity (%)): 95 ± 10.5%
activity at 2.3 µM ([5]; Homo sapiens, 2.3 μM, hTERT-BJ1, read-out: Relative SEAP activity (%)): 147 ± 18.8%
activity at 23 µM ([5]; Homo sapiens, 23 μM, hTERT-BJ1, read-out: Relative SEAP activity (%)): 149 ± 16.1%
activity at 230 µM ([5]; Homo sapiens, 230 μM, hTERT-BJ1, read-out: Relative SEAP activity (%)): 124 ± 5.3%
IC50 (rat glioma C6 cells): 39.1 ± 4.1 µM

Structure (SMILES): O=C(Cc1cccs1)Nc1ccc(NC(=O)Cc2cccs2)c2c1C(=O)c1ccccc1C2=O [VI25, 1,4-Bis(2-thiopheneacetamido)-9,10-anthracenedione]
viability at 48 h, 2 µM [1]: 104 ± 8%
viability at 48 h, 20 µM [1]: 83 ± 6.6%
viability at 48 h, 205 µM [1]: 41 ± 4%
viability at 48 h, 205 µM ([2]; hTERT-BJ1 cells stably transfected with PhTERT-SEAP reporter): 76 ± 6.5%
viability at 48 h, 2 µM [2, 7]: 116 ± 7.5%
viability at 48 h, 20 µM [2, 7]: 105 ± 4.4%
IC50 (human hepatoma G2 cells): > 20 µM
SEAP/vibility [4, 8]: 1.06
SEAP/vibility [4, 9]: 1.39
SEAP/vibility ([4]; 205 μM, PhTERT-SEAP(hTERT-H1299)): 2.47
activity at 2 µM [4, 10]: 111 ± 3.7%
activity at 20 µM [4, 11]: 115 ± 4.3%
activity at 205 µM ([4]; Homo sapiens, NCI-H1299, 205 μM, PhTERT-SEAP(hTERT-H1299), read-out: Relative SEAP activity (%)): 102 ± 5.5%
SEAP/vibility [5, 12]: 0.45
SEAP/vibility ([5]; 20 μM, PhTERT-SEAP (hTERT-BJ1)): 0.38
SEAP/vibility ([5]; 205 μM, PhTERT-SEAP (hTERT-BJ1)): 0.19
activity at 2 µM [5, 13]: 53 ± 17.4%
activity at 20 µM [5, 14]: 40 ± 12.7%
activity at 205 µM ([5]; Homo sapiens, 205 μM, PhTERT-SEAP (hTERT-BJ1), read-out: Relative SEAP activity (%)): 14 ± 24.1%
melting point: 158 to 160 °C
IC50 [6]: 15.5 µM
IC50 (rat glioma C6 cells): > 20 µM

Structure (SMILES): O=C(Cc1ccc(F)cc1)Nc1ccc(NC(=O)Cc2ccc(F)cc2)c2c1C(=O)c1ccccc1C2=O [VI32, 1,4-Bis(4-fluorophenylacetamido)-9,10-anthracenedione]
viability at 48 h, 1.9 µM [1]: 108 ± 8.8%
viability at 48 h, 19 µM [1]: 107 ± 7.5%
viability at 48 h, 195 µM [1]: 78 ± 8%
viability at 48 h, 1.9 µM [2, 7]: 107 ± 7.2%
viability at 48 h, 19 µM [2, 7]: 100 ± 6.3%
viability at 48 h, 195 µM [2, 7]: 96 ± 4.1%
IC50 (human hepatoma G2 cells): > 20 µM
SEAP/vibility ([4]; 1.9 μM, PhTERT-SEAP(hTERT-H1299)): 1.00
SEAP/vibility ([4]; 19 μM, PhTERT-SEAP(hTERT-H1299)): 1.03
SEAP/vibility ([4]; 195 μM, PhTERT-SEAP(hTERT-H1299)): 1.39
activity at 1.9 µM ([4]; Homo sapiens, NCI-H1299, 1.9 μM, PhTERT-SEAP(hTERT-H1299), read-out: Relative SEAP activity (%)): 109 ± 10.8%
activity at 19 µM ([4]; Homo sapiens, NCI-H1299, 19 μM, PhTERT-SEAP(hTERT-H1299), read-out: Relative SEAP activity (%)): 109 ± 5.8%
activity at 195 µM ([4]; Homo sapiens, NCI-H1299, 195 μM, PhTERT-SEAP(hTERT-H1299), read-out: Relative SEAP activity (%)): 109 ± 6.6%
SEAP/vibility ([5]; 1.9 μM, PhTERT-SEAP (hTERT-BJ1)): 0.84
SEAP/vibility ([5]; 19 μM, PhTERT-SEAP (hTERT-BJ1)): 1.02
SEAP/vibility ([5]; 195 μM, PhTERT-SEAP (hTERT-BJ1)): 1.01
activity at 1.9 µM ([5]; Homo sapiens, 1.9 μM, PhTERT-SEAP (hTERT-BJ1), read-out: Relative SEAP activity (%)): 90 ± 18.4%
activity at 19 µM ([5]; Homo sapiens, 19 μM, PhTERT-SEAP (hTERT-BJ1), read-out: Relative SEAP activity (%)): 102 ± 20%
activity at 195 µM ([5]; Homo sapiens, 195 μM, PhTERT-SEAP (hTERT-BJ1), read-out: Relative SEAP activity (%)): 97 ± 11.6%
melting point: 228 to 230 °C
IC50 [6]: > 20 µM
IC50 (rat glioma C6 cells): > 20 µM

Structure (SMILES): CCN(CC)CC(=O)Nc1ccc(NC(=O)CN(CC)CC)c2c1C(=O)c1ccccc1C2=O [VI33, 1,4-Bis[2-(diethylamino)acetamido]-9,10-anthracenedione]
viability at 48 h, 2.1 µM [1]: 105 ± 4.9%
viability at 48 h, 21 µM [1]: 87 ± 3.9%
viability at 48 h, 215 µM [1]: 44 ± 2.7%
viability at 48 h, 2.1 µM [2, 7]: 105 ± 2.8%
viability at 48 h, 21 µM [2, 7]: 86 ± 3.5%
viability at 48 h, 215 µM [2, 7]: 32 ± 13.1%
IC50 (human hepatoma G2 cells): 0.65 µM
SEAP/vibility ([4]; 2.1 μM, PhTERT-SEAP(hTERT-H1299)): 0.94
SEAP/vibility ([4]; 21 μM, PhTERT-SEAP(hTERT-H1299)): 0.99
SEAP/vibility ([4]; 215 μM, PhTERT-SEAP(hTERT-H1299)): 1.11
activity at 2.1 µM ([4]; Homo sapiens, NCI-H1299, 2.1 μM, PhTERT-SEAP(hTERT-H1299), read-out: Relative SEAP activity (%)): 98 ± 3.3%
activity at 21 µM ([4]; Homo sapiens, NCI-H1299, 21 μM, PhTERT-SEAP(hTERT-H1299), read-out: Relative SEAP activity (%)): 86 ± 7.4%
activity at 215 µM ([4]; Homo sapiens, NCI-H1299, 215 μM, PhTERT-SEAP(hTERT-H1299), read-out: Relative SEAP activity (%)): 48 ± 2.3%
SEAP/vibility ([5]; 2.1 μM, PhTERT-SEAP (hTERT-BJ1)): 1.06
SEAP/vibility ([5]; 21 μM, PhTERT-SEAP (hTERT-BJ1)): 1.40
SEAP/vibility ([5]; 215 μM, PhTERT-SEAP (hTERT-BJ1)): 2.61
activity at 2.1 µM ([5]; Homo sapiens, 2.1 μM, PhTERT-SEAP (hTERT-BJ1), read-out: Relative SEAP activity (%)): 111 ± 24.4%
activity at 21 µM ([5]; Homo sapiens, 21 μM, PhTERT-SEAP (hTERT-BJ1), read-out: Relative SEAP activity (%)): 120 ± 25.6%
activity at 215 µM ([5]; Homo sapiens, 215 μM, PhTERT-SEAP (hTERT-BJ1), read-out: Relative SEAP activity (%)): 83 ± 19%
melting point: 85 to 86 °C
IC50 [6]: 13 µM
IC50 (rat glioma C6 cells): 4.46 µM

Structure (SMILES): CCN(CC)C(C)C(=O)Nc1ccc(NC(=O)C(C)N(CC)CC)c2c1C(=O)c1ccccc1C2=O (stereo not drawn) [VI35, 1,4-Bis[2-(diethylamino)propionamido]-9,10-anthracenedione]
viability at 48 h, 2 µM [1]: 96 ± 7.9%
viability at 48 h, 20 µM [1]: 77 ± 7.2%
viability at 48 h, 203 µM [1]: 75 ± 4.6%
viability at 48 h, 2 µM [2, 7]: 97 ± 3.9%
viability at 48 h, 20 µM [2, 7]: 52 ± 7.2%
viability at 48 h, 203 µM [2, 7]: 36 ± 5.8%
IC50 (human hepatoma G2 cells): 2.02 µM
SEAP/vibility [4, 8]: 1.00
SEAP/vibility [4, 9]: 1.35
SEAP/vibility ([4]; 203 μM, PhTERT-SEAP(hTERT-H1299)): 0.98
activity at 2 µM [4, 10]: 96 ± 14.3%
activity at 20 µM [4, 11]: 104 ± 6%
activity at 203 µM ([4]; Homo sapiens, NCI-H1299, 203 μM, PhTERT-SEAP(hTERT-H1299), read-out: Relative SEAP activity (%)): 73 ± 11.7%
SEAP/vibility [5, 12]: 0.41
SEAP/vibility ([5]; 20 μM, PhTERT-SEAP (hTERT-BJ1)): 0.94
SEAP/vibility ([5]; 203 μM, PhTERT-SEAP (hTERT-BJ1)): 0.61
activity at 2 µM [5, 13]: 40 ± 14.5%
activity at 20 µM [5, 14]: 49 ± 9.3%
activity at 203 µM ([5]; Homo sapiens, 203 μM, PhTERT-SEAP (hTERT-BJ1), read-out: Relative SEAP activity (%)): 22 ± 6.6%
melting point: 175 to 177 °C
IC50 [6]: 8.57 µM
IC50 (rat glioma C6 cells): 18.1 µM
